# Test results reported in PubChem BioAssay (NCI).
#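 Tested at 5 concentrations; 48 h exposure; 96-well plates; endpoints linearly interpolated, else capped at highest concentration. TGI is the concentration that stops growth completely.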
# How the values were obtained:
# Assay in all cases: NCI tumour cell line growth inhibition, 48 h
# A498 renal = system: A498 renal
# UACC-62 melanoma = system: UACC-62 melanoma
# NCI-H226 lung = system: NCI-H226 lung
# UACC-257 melanoma = system: UACC-257 melanoma
# OVCAR-3 ovarian = system: OVCAR-3 ovarian
# NCI-H460 lung = system: NCI-H460 lung
# P388 leukemia = system: P388 leukemia
# LOX IMVI melanoma = system: LOX IMVI melanoma
# K-562 leukemia = system: K-562 leukemia
# SNB-75 CNS = system: SNB-75 CNS
# CCRF-CEM leukemia = system: CCRF-CEM leukemia
# KM20L2 colon = system: KM20L2 colon
# NCI/ADR-RES ovarian = system: NCI/ADR-RES ovarian
# SK-MEL-5 melanoma = system: SK-MEL-5 melanoma
# MCF7 breast = system: MCF7 breast
# M19-MEL melanoma = system: M19-MEL melanoma
# SW-620 colon = system: SW-620 colon
# IGROV1 ovarian = system: IGROV1 ovarian
# COLO 205 colon = system: COLO 205 colon
# SF-295 CNS = system: SF-295 CNS
# HOP-18 NSCLC = system: HOP-18 NSCLC
# SN12C renal = system: SN12C renal
# RPMI-8226 leukemia = system: RPMI-8226 leukemia
# HT29 colon = system: HT29 colon
# HCT-116 colon = system: HCT-116 colon
# A549 NSCLC = system: A549 NSCLC
# SNB-19 CNS = system: SNB-19 CNS
# DLD-1 colon = system: DLD-1 colon
# U251 CNS = system: U251 CNS
# MOLT-4 leukemia = system: MOLT-4 leukemia
# OVCAR-4 ovarian = system: OVCAR-4 ovarian
# RXF 393 renal = system: RXF 393 renal
# SK-OV-3 ovarian = system: SK-OV-3 ovarian
# CAKI-1 renal = system: CAKI-1 renal
smiles,measurement,setting,value
C=C1CC(OC)(C(O)C(=O)N[C@H]2OCO[C@H]3C2O[C@H](C[C@@H](CO)OC)C(C)(C)C3OC)O[C@H](C)[C@@H]1C (some centres undefined),TGI,A498 renal,< 9.32 nM
same,TGI,UACC-62 melanoma,< 9.32 nM
same,TGI,NCI-H226 lung,< 9.32 nM
same,TGI,UACC-257 melanoma,< 9.32 nM
same,TGI,OVCAR-3 ovarian,< 9.32 nM
same,TGI,NCI-H460 lung,< 9.32 nM
same,TGI,P388 leukemia,> 93200 nM
same,TGI,LOX IMVI melanoma,< 9.32 nM
same,TGI,K-562 leukemia,> 93200 nM
same,TGI,SNB-75 CNS,< 9.32 nM
same,TGI,CCRF-CEM leukemia,53.2 nM
same,TGI,KM20L2 colon,< 9.32 nM
same,TGI,NCI/ADR-RES ovarian,16 nM
same,TGI,SK-MEL-5 melanoma,< 9.32 nM
same,TGI,MCF7 breast,> 93200 nM
same,TGI,M19-MEL melanoma,< 9.32 nM
same,TGI,SW-620 colon,< 9.32 nM
same,TGI,IGROV1 ovarian,< 9.32 nM
same,TGI,COLO 205 colon,< 9.32 nM
same,TGI,SF-295 CNS,< 9.32 nM
same,TGI,HOP-18 NSCLC,< 9.32 nM
same,TGI,SN12C renal,11.4 nM
same,TGI,RPMI-8226 leukemia,< 9.32 nM
same,TGI,HT29 colon,< 9.32 nM
same,TGI,HCT-116 colon,< 9.32 nM
same,TGI,A549 NSCLC,< 9.32 nM
same,TGI,SNB-19 CNS,< 9.32 nM
same,TGI,DLD-1 colon,< 9.32 nM
same,TGI,U251 CNS,< 9.32 nM
same,TGI,MOLT-4 leukemia,> 93200 nM
same,TGI,OVCAR-4 ovarian,< 9.32 nM
same,TGI,RXF 393 renal,< 9.32 nM
same,TGI,SK-OV-3 ovarian,< 9.32 nM
same,TGI,CAKI-1 renal,< 9.32 nM
